In patent US6531148B1, “Therapeutic agents” (Takara Shuzo Co., Ltd., priority 1998, dated 2003):

Experiments:
Assay type in all cases: cell-based
[1] = system: Mouse melanoma cell B16BL6; assay: Melanogenesis inhibition test; settings: B16BL6, absorbance at 400 nm
Procedure: Mouse melanoma cell B16BL6 suspended in RPMI 1640 medium containing 10% fetal bovine serum was dispensed into a 6-well plate at 5×10^4 cells/well/2 ml medium and the plate was incubated at 37° C. On the 2nd day, 100 μl of a DGE solution (2 mg/ml to 0.2 mg/ml) was added thereto. On the 7th day, the medium was exchanged and, at the same time, 100 μl of the DGE solution (2 mg/ml to 0.2 mg/ml) was added thereto. On the 8th day, the cells were harvested. After DNA, RNA and protein were digested, the absorbance at 400 nm was measured to determine an activity of inhibiting melanogenesis.
Briefly, after removing the medium by aspiration, 0.3 ml of 0.25% trypsin dissolved in 20 mM EDTA solution was added to each well and the plate was incubated at 37° C. for 10 minutes. 2 ml of fresh medium was then added to the well and the cells were suspended. The suspension was transferred to a tube. After the medium was removed by centrifugation, the cells were suspended in 2 ml of PBS and centrifuged again. After the supernatant was removed, 30 μl of 50 mM sodium acetate buffer (pH 5.0) containing 5 mM manganese chloride and 1 μl of 70,000 U/ml DNase I (Takara Shuzo) were added to the cells. The mixture was mixed thoroughly and then incubated at 37° C. for 2 hours to digest DNA. 1 μl of 10 mg/ml ribonuclease A (Sigma) was then added to the mixture and the resultant mixture was incubated at 50° C. for 1 hour to digest RNA. Finally, 100 mM Tris-hydrochloride buffer (pH 7.8) containing 100 μg/ml proteinase K (Sigma), 0.1% Triton X and 10 mM EDTA was added thereto to make the total volume to 200 μl for 2×10^6 cells. After the mixture was incubated at 37° C. for 16 hours, the absorbance at 400 nm was measured.

[2] = system: prostaglandin E2 production induced by LPS in RAW264.7 cells; assay: Prostaglandin E2 production inhibition test
Procedure: RAW264.7 cells were suspended in Dulbecco's modified Eagle's medium containing 10% fetal bovine serum at a concentration of 3×10^5 cells/ml. 500 μl of the suspension was added to each well of a 48-well microtiter plate and the plate was incubated at 37° C. for 6 hours in the presence of 5% CO2. 10 μl of an aqueous solution prepared by dissolving DGE at a concentration of 0.5 mM in water and sterilizing it by filtration was added to the well. The plate was incubated for additional 0.5 or 5 hours. 10 μl of 50 μg/ml aqueous LPS solution was then added to the well. After the plate was incubated for additional 12 hours, the amount of prostaglandin E2 was measured. As control groups, a group to which LPS was not added and a group to which DGE was not added were provided.
After cultivation, the amount of prostaglandin E2 in the culture supernatant was measured using Prostaglandin E2 ELISA Kit (Neogen, Code. 404110). All of the measurements were carried out in triplicate.
RAW264.7 cells were suspended in Dulbecco's modified Eagle's medium without phenol red containing 10% fetal bovine serum and 2 mM L-glutamine at a concentration of 3×10^5 cells/ml. 500 μl of the suspension was added to each well of a 48-well microtiter plate and the plate was incubated at 37° C. for 12 hours in the presence of 5% CO2. 10 μl of 50 μg/ml aqueous lipoplysaccharide solution and 10 μl of an aqueous solution prepared by dissolving DGE-GSH prepared in Example 13-(1) at a concentration of 1 mM in water and sterilizing it by filtration were then added to the well. After the plate was incubated for additional 16 hours, the amount of prostaglandin E2 was measured. As control groups, a group to which LPS was not added and a group to which DGE-GSH was not added were provided.
After cultivation, the amount of prostaglandin E2 in the culture supernatant was measured using Prostaglandin E2 ELISA Kit (Neogen, Code. 404110).

HL-60 cells = assay: Apoptosis induction test
Procedure: (1) HL-60 cells were cultured at 37° C. in RPMI 1640 medium (Bio Whittaker) containing 10% of fetal bovine serum (JRH), which had been treated at 56° C. for 30 minutes, and suspended in RPMI 1640 medium at a concentration of 2.5×10^5 cells/4.5 ml.
500 μl of at 125 μM, 250 μM, 500 μM, 1 mM, 2 mM or 4 mM aqueous DGE solution was added to 4.5 ml of the suspension. The mixtures were incubated at 37° C. for 24 hours in the presence of 5% CO2.
The cultured cells were examined under an optical microscope.
Measurement of apoptotic cells using FACScan as described in Saibo Kogaku, Bessatsu (Cell Technology, Suppl.) Jikken Protocol Series: Apoptosis Jikken Protocol (Experimental Protocol Series: Experimental Protocols for Apoptosis) (Shujun-sha) pp. 129-130 and analysis of DNA fragmentation as described in Bio Manual UP Series: Saishin Apoptosis Jikken-ho (Bio Manual UP Series: Current Experimental Methods for Apoptosis) (Yodo-sha) pp. 61-63 were carried out using cells cultured for 24 or 48 hours in the same manner as that described above.
(2) A portion of the cells cultured for 24 hours as described in Example 2-(1) was stained with 0.4% Trypan Blue and examined under an optical microscope. The number of viable cells which were not stained and the number of dead cells which were stained blue were counted. The concentration of DGE that results in a viability of 50% [Viability50 (μM)] was determined to be 81.7 μM.

human FGF-β = assay: Cytokine production from DSEK cells (ELISA); settings: DSEK culture supernatant at 24 or 72 hours
Procedure: (§1) 150 μl/well of culture supernatant was recovered from the DSEK cell culture at 24 or 72 hours. The effects of DGE on the production (expression) of cytokines (human TGF-β, human FGF-β, human IL-1α and human IL-10) from the cell were determined using ELISA kits specific for the respective cytokines (from Intergen for human FGF-β and human IL-10; and from Promega for human IL-1α and human TGF-β).

human IL-10 = assay: Cytokine production from DSEK cells (ELISA); settings: DSEK culture supernatant at 24 or 72 hours
Procedure: as §1

human IL-1α = assay: Cytokine production from DSEK cells (ELISA); settings: DSEK culture supernatant at 24 or 72 hours
Procedure: as §1

human TGF-β = assay: Cytokine production from DSEK cells (ELISA); settings: DSEK culture supernatant at 24 or 72 hours
Procedure: as §1

## 5-L-glutathion-S-yl-2-hydroxy-3,7-dioxabicyclo[2.2.2]octan-1-ol [DGE-GSH]
[1]
  activity of inhibiting melanogenesis: also exhibited similar activities
[2]; LPS, 10 μl of 1 mM DGE-GSH per 500 μl well, 16 hours, control 63.4 ng/ml, no addition 50.3 ng/ml
  prostaglandin E2 concentration in the medium: 50.7 ng/mL

## O=C1C=CC(CO)OC1O [DGE, L-glycero-1,5-epoxy-1αβ,6-dihydroxy-cis-hex-3-en-2-one]
HL-60 cells
  antiproliferation activity against tumor cells due to the apoptosis-inducing activity: exhibited an antiproliferation activity against tumor cells
HL-60 cells; 24 or 48 hours, DGE at 50 or 100 μM
  DNA fragmentation: DNA fragmentation was observed
HL-60 cells; 24 or 48 hours, FACScan
  final concentration at which apoptotic cells were observed: ≥ 50 µM
HL-60 cells; 24 hours, optical microscope
  final concentration at which condensation of nuclei, shrinking of cells and formation of apoptotic bodies were observed: ≥ 50 µM
HL-60 cells; Homo sapiens, 24 hours, Trypan Blue, read-out: Viability50, concentration that results in a viability of 50%
  IC50: 81.7 µM
[1]
  activity of inhibiting melanogenesis: an activity of inhibiting melanogenesis was observed
Human FGF-β
  production of human FGF-β: inhibiting the production
Human IL-10
  production of human IL-10: enhancing the production
Human IL-1α
  production of human IL-1α: inhibiting the production
Human TGF-β
  production of human TGF-β: enhancing the production
[2]; DGE added before LPS
  inhibition of prostaglandin E2 production, 5 hours pre-incubation with DGE compared with 0.5 hour: stronger inhibition of prostaglandin E2 production
[2]; ELISA
  inhibition of prostaglandin E2 production induced by LPS: inhibited the prostaglandin E2 production induced by LPS

## O=C1C=CC(CO)OC1O [κ-DGE, D-glycero-1,5-epoxy-1αβ,6-dihydroxy-cis-hex-3-en-2-one]
HL-60 cells
  antiproliferation activity against tumor cells due to the apoptosis-inducing activity: exhibited a similar activity
[1]
  activity of inhibiting melanogenesis: also exhibited similar activities
